Results from patent publication US20250241873A1, “KETAMINE NASAL SPRAY FORMULATION AND METHODS OF USE” (INESKET LLC, priority 2024, published 2025).
Read-outs that look alike come from different tables or passages of the source.

Experiments:
[1] = Open-label absolute bioavailability / pharmacokinetic study of intranasal ketamine in healthy volunteers; type: in vivo, human; conditions: for AUC(0-t): read-out: AUC (0-4 hr); for bioavailability / Absolute Bioavailability (%): relative to IV, dose-corrected ratio of least squares geometric mean AUC(inf)
Description: This was an open-label study in 25 healthy volunteers. Subjects received single doses of ketamine by intravenous (IV) injection (20 mg), intramuscular (IM) injection (20 mg), or intranasal (IN) administration (20 mg, 40 mg and 80 mg).
Blood samples for the measurement of plasma concentrations of (R)- and (S)-ketamine and (R)- and (S)-norketamine were collected pre-dose and at 0.033, 0.083, 0.167, 0.25, 0.333, 0.5, 0.75, 1, 1.25, 2, 2.5, 3, 4, 6, 8, 12, 16, and 24 hours post-dose for each study period.
All estimates for the parent and metabolite were consistent within each formulation or dose for the racemate, (R)-, and (S)-enantiomers. After IN administration, the estimates were slightly higher for the metabolite than the parent.

[2] = acidic pH near 4.5
Text: A Buffer may be used to control the pH of the nasal spray solution at, or near 4.5. […] Also, the local pH value inside the nasal cavity directly influences the rate and extent of drug absorption. […] Additionally, maintaining pH at or above 4.0 helps to reduce local nasal tract irritation. The buffer is optional.

NMDA receptors = conditions: cited from earlier work
[3] = Dose 20 mg, hydro-alcoholic composition, minimum-maximum
[4] = Dose 40 mg, hydro-alcoholic composition, minimum-maximum
[5] = human, plasma, inhaled or intranasal, 20 mg, AUC (0-1 hr), intranasal, effective amount 20 mg
[6] = human, plasma, inhaled or intranasal, 20 mg, intranasal, effective amount 20 mg
[7] = human, plasma, inhaled or intranasal, intranasal, effective amount 20 mg
[8] = human, plasma, other: intranasal, Dose 20 mg, hydro-alcoholic composition, minimum-maximum
[9] = human, plasma, other: intranasal, Dose 40 mg, hydro-alcoholic composition, minimum-maximum
[10] = human, plasma, other: intranasal, IN administration of racemic ketamine 20 mg
[11] = human, plasma, other: intranasal, IN administration of racemic ketamine 40 mg
[12] = human, plasma, other: intranasal, IN administration of racemic ketamine 80 mg
[13] = IN administration of racemic ketamine 20 mg
[14] = IN administration of racemic ketamine 40 mg
[15] = IN administration of racemic ketamine 80 mg
[16] = Dose 10 mg, hydro-alcoholic composition, minimum-maximum
[17] = human, plasma, other: intranasal, Dose 10 mg, hydro-alcoholic composition, minimum-maximum

SMILES	AUC(0-1 hr) [1, 3]	AUC(0-4 hr) [1, 3]	Cmax [1, 8] [ng/mL]	Tmax [1, 8] [min]	bioavailability [1, 10] [%]	bioavailability [1, 11] [%]	bioavailability [1, 12] [%]	Absolute Bioavailability (%) [1, 13] [%]	Absolute Bioavailability (%) [1, 14] [%]	Absolute Bioavailability (%) [1, 15] [%]	further results
CNC1(c2ccccc2Cl)CCCCC1=O (racemic) [(RS)-Ketamine, (2-(2-chlorophenyl)-2-(methylamino)-cyclohexanone)]	28.7-127 hr′ng/mL	60.0-209 hr′ng/mL	48 to 280	4.98 to 30	82.1	69.1	51.8				AUC(0-1 hr) [1, 4]: 71.4-225 hr′ng/mL; AUC(0-4 hr) [1, 4]: 160-433 hr′ng/mL; AUC(0-1 hr) [1, 5]: 28.7 to 127 ng·h/mL; AUC(0-t) [1, 6]: 60 to 209 ng·h/mL; AUC(0-1 hr) ([1]; human, plasma, inhaled or intranasal, 40 milligrams, AUC (0-1 hr), intranasal, effective amount 40 milligrams): 71.4 to 225 ng·h/mL; AUC(0-t) ([1]; human, plasma, inhaled or intranasal, 40 milligrams, intranasal, effective amount 40 milligrams): 160 to 433 ng·h/mL; Tmax [1, 7]: 4.98 to 30 min; Tmax ([1]; human, plasma, inhaled or intranasal, intranasal, effective amount 40 milligrams): 10 to 30 min; Cmax [1, 9]: 94.7 to 367 ng/mL; Tmax [1, 9]: 10 to 30 min
N[C@@]1(c2ccccc2Cl)CCCCC1=O [(R)-Norketamine]								90.7	77.8	54.3	
NC1(c2ccccc2Cl)CCCCC1=O (racemic) [(RS)-Norketamine]								94.4	78.8	54.8	
CNC1(c2ccccc2Cl)CCCCC1=O.Cl (stereo not drawn) [Es/ketamine HCl]											stability of solution [2]: better stability
CN[C@@]1(c2ccccc2Cl)CCCCC1=O [(R)-Ketamine]	40.5-129 hr′ng/mL	93.0-251 hr′ng/mL	53.4 to 206	10 to 30	81.6	68.6	51.1				Ki (NMDA receptors): 1.1 µM; AUC(0-1 hr) [1, 16]: 15.9-70.8 hr′ng/mL; AUC(0-4 hr) [1, 16]: 33.6-118 hr′ng/mL; Cmax [1, 17]: 26.5 to 155 ng/mL; Tmax [1, 17]: 4.98 to 30 min
CN[C@]1(c2ccccc2Cl)CCCCC1=O [(S)-Ketamine]	30.9-96.7 hr′ng/mL	66.9-181 hr′ng/mL	41.3 to 161	10 to 30	82.4	68.9	51.5				Ki (NMDA receptors): 3.2 µM; AUC(0-1 hr) [1, 16]: 12.8-55.8 hr′ng/mL; AUC(0-4 hr) [1, 16]: 26.4-90.4 hr′ng/mL; AUC(0-1 hr) ([1]; human, plasma, inhaled or intranasal, 10 mg, AUC (0-1 hr), intranasal, effective amount 10 mg): 12.8 to 55.8 ng·h/mL; AUC(0-t) ([1]; human, plasma, inhaled or intranasal, 10 mg, intranasal, effective amount 10 mg): 26.4 to 90.4 ng·h/mL; AUC(0-1 hr) [1, 5]: 30.9 to 96.7 ng·h/mL; AUC(0-t) [1, 6]: 66.9 to 181 ng·h/mL; Tmax ([1]; human, plasma, inhaled or intranasal, intranasal, effective amount 10 mg): 5 to 19.8 min; Tmax [1, 7]: 10 to 30 min; Cmax [1, 17]: 21.4 to 125 ng/mL; Tmax [1, 17]: 5 to 20 min
N[C@]1(c2ccccc2Cl)CCCCC1=O [(S)-Norketamine]								92.4	77.8	54.9	
